Assay results from patent publication US20260207735A1, “Pharmaceutical compositions, vaccines and their uses in the prevention or treatment of a persistent infection or of cancer” (Universitätsmedizin der Johannes Gutenberg-Universität Mainz, priority 2018, published 2026).

What was measured:
CD8+ T cell response = settings: following transcutaneous immunization with imiquimod in mice; cited from earlier work
influenza = settings: combined with a vaccine, compared to the vaccine alone; cited from earlier work
[1] = tested on: CD11c positive Dendritic cells (DCs); experiment: TLR7 mediated activation of splenic dendritic cells in vitro (CD40, CD80, CD86 by flow cytometry); format: cell-based, C57BL/6 mice; settings: R-848 10 μg/ml, 24 h incubation; NAC 5 mM
Method: CD11c positive Dendritic cells (DCs) were purified from spleens from C57BL/6 mice) as described in Weber M et al. (2014) and activated as indicated with the TLR7/8 agonist R-848 (10 μg/ml), anthralin (dithranol), N-acetyl cysteine (NAC 5 mM) or left untreated in Iscoves's medium+5% FCS (Michael Weber et al., “Donor and Host B Cell-Derived IL-10 Contributes to Suppression of Graft-Versus-Host Disease.,” European Journal of Immunology 44, no. 6 (June 2014): 1857-65, doi:10.1002/eji.201344081).
After 24 h incubation, the cells were harvested, labeled with specific mAbs and analyzed by flow cytometry for the activation markers CD40, CD80 and CD86 gating on live (propidium iodide negative, CD11c/MHC class II positive DCs).
Spleens of C57BL6/J wildtype mice were harvested, picked and digested for 45 min with type 2 collagenase (50 U/ml from Worcester, Pappenheim, Germany) and stopped by adding 2 mM EDTA (from Sigma-Aldrich, Taufkirchen, Germany). After a hypotonic lysis step DCs were isolated using CD11c MicroBeads UltraPure (Miltenyi Biotec, Germany) following the manufacturer's instruction. 2×10^5 CD11c^+ DCs/well were plated in 96 well plates and cultivated for either 24 or 48 h in the presence of TLR7 ligand R-848 (10 μg/ml) and/or different concentrations of anthralin (solved in DMSO). […] Following cytokines were quantified using CBA technology: IL-1b; IL-6; IL-10; IL-12; IL-23; TNF-α.

[2] = tested on: peptide-specific CD8+ T cells; experiment: Imiquimod based transcutaneous immunization (TCI), primary T cell response (tetramer flow cytometry, in vivo cytolytic activity, IFN-γ ELISpot); parameters: species or system C57BL/6 mice; settings: for T cell activation (primary T cell response): 0.0625% in Vaseline on ear skin 24 h before TCI (IMI-Sol + OVA peptides), read-out day 7
[3] = tested on: peptide-specific CD8+ T cells; experiment: Imiquimod based TCI, memory immune response (secondary T cell response), Day 35; format: in vivo, C57BL/6 mice; settings: dithranol 0.0625% in Vaseline 24 h before TCI; read-out Day 35
Method: C57BL/6 mice (n=3-8 per group) were immunized by TCI, performed as described in FIG. 1 (A) The frequency of peptide-specific CD8^+ T cells was assessed on Day 35 via flow cytometry. (B) The in vivo cytolytic activity was analyzed on Day 35, 20 h after transfer of peptide-loaded splenocytes. (C) IFN-γ production of splenocytes on Day 35 post the indicated treatments. Splenocytes were re-stimulated with the indicated peptides for 24 h before harvest and analysis by ELISpot assay. * Significance by One Way ANOVA with Bonferroni Posttest analysis; p<0.05 (*). […]
For detecting in vivo cytolytic activity, splenocytes of syngenic wildtype mice were labeled with different amounts of 5,6-carboxyfluorescein diacetate succinimidyl ester (CFSE; Invitrogen, Carlsbad, USA) resulting in a CFSE^low and a CFSE^high population. […] Specific lysis was evaluated as following: Specific lysis (%)=100×(1−([…]). All analyses were performed with a LSRII Flow Cytometer and FACSDiva Software (Becton Dickinson, Franklin Lakes, USA). […]

[4] = α-Tocopherol 600 U/kg i.p. 1 h before anthralin and/or TCI, day 7

Structure (SMILES): Oc1cc2ccccc2c2ccccc12 [9-phenanthrol]
- generation of a CD8+ T cell response (CD8+ T cell response): enhances the generation of a CD8+ T cell response

Structure (SMILES): CC(C)Cn1cnc2c(N)nc3ccccc3c21 [Imiquimod, imiquimod]
- survival of mice (influenza): improve survival of mice

Structure (SMILES): CC(=O)N[C@@H](CS)C(=O)O [NAC, N-acetyl cysteine]
- TLR7 mediated activation of DCs (CD40, CD80, CD86) [1]: activation phenotype is restored

Structure (SMILES): O=C1c2cccc(O)c2C(=O)c2c(O)cccc21 [danthron]
- T cell activation (primary T cell response) [2]: no impact on T cell activation

Structure (SMILES): O=C1c2c(O)cccc2Cc2cccc(O)c21 [dithranol, 1,8-dihydroxy-9-anthrone]
- T cell activation (primary T cell response) [2]: synergistic effect on T cell activation on CD8 positive as well as CD4 positive T cells
- site dependence of synergistic T cell activation ([2]; TCI on both ears or only one ear, day 7): required at the same site (ear) to mediate synergistic T cell activation
- T cell activation including memory T cell formation (secondary T cell response) [3]: synergistic effect on T cell activation on CD8 positive as well as CD4 positive T cells including memory T cell formation
- TLR7 mediated activation of DCs (CD40, CD80, CD86) [1]: suppresses the TLR7 mediated activation of DCs in vitro

Structure (SMILES): Cc1c(C)c2c(c(C)c1O)CC[C@@](C)(CCC[C@H](C)CCC[C@H](C)CCCC(C)C)O2 [α-Tocopherol]
- CTL frequency (peptide-specific CD8+ T cells) [2, 4]: without affecting CTL frequency
- in vivo cytolytic activity induced by dithranol (anthralin) TCI [2, 4]: antagonizes the enhanced cytolytic activity induced by dithranol (anthralin) TCI
